“And” between values parts separate entries of the source, which are not always exact repeats. Equal entries are not always repeated. Numbers after ± are expanded uncertainties.
Details: for vapor or sublimation pressure: Closed cell (Static) method; for mass density: buoyancy

FCC(F)(F)F [1,1,1,2-tetrafluoroethane]
vapor or sublimation pressure (253.13 K, Liquid): 133.58 ± 1.1 kPa and 133.6 ± 1.1 kPa | mass density (253.13 K, Liquid): 1358.69 ± 0.4 kg/m3 and 1358.7 ± 0.4 kg/m3 | mass density (262.98 K, 30.04 kPa, Fluid (supercritical or subcritical phases)): 1.41703 ± 0.052 kg/m3 | mass density (262.99 K, 30.02 kPa, Fluid (supercritical or subcritical phases)): 1.41553 ± 0.052 kg/m3 and 1.41816 ± 0.052 kg/m3 | mass density (262.99 K, 50.03 kPa, Fluid (supercritical or subcritical phases)): 2.37378 ± 0.052 kg/m3 | mass density (262.99 K, 80.08 kPa, Fluid (supercritical or subcritical phases)): 3.83561 ± 0.053 kg/m3 | mass density (262.99 K, 100.09 kPa, Fluid (supercritical or subcritical phases)): 4.82696 ± 0.055 kg/m3 | mass density (262.99 K, 150.06 kPa, Fluid (supercritical or subcritical phases)): 7.37304 ± 0.055 kg/m3 | vapor or sublimation pressure (262.99 K, Liquid): 200.47 ± 1.1 kPa | mass density (262.99 K, Liquid): 1327.33 ± 0.4 kg/m3 | vapor or sublimation pressure (263 K, Liquid): 200.48 ± 1.1 kPa | mass density (263 K, Liquid): 1327.31 ± 0.4 kg/m3 | mass density (273.31 K, 50 kPa, Fluid (supercritical or subcritical phases)): 2.27757 ± 0.051 kg/m3 and 2.2813 ± 0.051 kg/m3 | mass density (273.31 K, 100.01 kPa, Fluid (supercritical or subcritical phases)): 4.6218 ± 0.052 kg/m3 | mass density (273.31 K, 150.01 kPa, Fluid (supercritical or subcritical phases)): 7.03559 ± 0.053 kg/m3 | mass density (273.31 K, 200 kPa, Fluid (supercritical or subcritical phases)): 9.53172 ± 0.055 kg/m3 | vapor or sublimation pressure (273.31 K, Liquid): 295.5 ± 1.2 kPa | mass density (273.31 K, Liquid): 1293.96 ± 0.39 kg/m3 | mass density (273.32 K, 250 kPa, Fluid (supercritical or subcritical phases)): 12.1179 ± 0.056 kg/m3 | mass density (283.16 K, 100.09 kPa, Fluid (supercritical or subcritical phases)): 4.4428 ± 0.051 kg/m3 | mass density (283.16 K, 200.02 kPa, Fluid (supercritical or subcritical phases)): 9.12611 ± 0.052 kg/m3 | mass density (283.16 K, 300.08 kPa, Fluid (supercritical or subcritical phases)): 14.1052 ± 0.054 kg/m3 | vapor or sublimation pressure (283.16 K, Liquid): 415.71 ± 1.3 kPa | mass density (283.16 K, Liquid): 1260.66 ± 0.38 kg/m3 | mass density (283.17 K, 100.1 kPa, Fluid (supercritical or subcritical phases)): 4.44579 ± 0.051 kg/m3 | mass density (283.17 K, 350.92 kPa, Fluid (supercritical or subcritical phases)): 16.7525 ± 0.056 kg/m3 | vapor or sublimation pressure (283.17 K, Liquid): 415.71 ± 1.3 kPa | mass density (283.17 K, Liquid): 1260.67 ± 0.38 kg/m3 | mass density (293.21 K, 399.98 kPa, Fluid (supercritical or subcritical phases)): 18.4354 ± 0.056 kg/m3 | mass density (293.21 K, 500.02 kPa, Fluid (supercritical or subcritical phases)): 23.7422 ± 0.057 kg/m3 | mass density (293.22 K, 100.05 kPa, Fluid (supercritical or subcritical phases)): 4.27783 ± 0.049 kg/m3 and 4.27519 ± 0.049 kg/m3 | mass density (293.22 K, 200.05 kPa, Fluid (supercritical or subcritical phases)): 8.76202 ± 0.05 kg/m3 and 8.75976 ± 0.05 kg/m3 | mass density (293.22 K, 300.02 kPa, Fluid (supercritical or subcritical phases)): 13.4608 ± 0.052 kg/m3 | vapor or sublimation pressure (293.22 K, Liquid): 571.94 ± 1.5 kPa and 571.98 ± 1.5 kPa | mass density (293.22 K, Liquid): 1225.34 ± 0.38 kg/m3 and 1225.33 ± 0.38 kg/m3 | mass density (303.25 K, 100.02 kPa, Fluid (supercritical or subcritical phases)): 4.1211 ± 0.048 kg/m3 and 4.12406 ± 0.048 kg/m3 | vapor or sublimation pressure (303.25 K, Liquid): 771.67 ± 1.7 kPa | mass density (303.25 K, Liquid): 1187.23 ± 0.37 kg/m3 | mass density (303.26 K, 299.99 kPa, Fluid (supercritical or subcritical phases)): 12.8979 ± 0.05 kg/m3 | mass density (303.26 K, 499.91 kPa, Fluid (supercritical or subcritical phases)): 22.542 ± 0.056 kg/m3 | mass density (303.26 K, 711.4 kPa, Fluid (supercritical or subcritical phases)): 34.0053 ± 0.059 kg/m3 | vapor or sublimation pressure (303.26 K, Liquid): 771.76 ± 1.7 kPa | mass density (303.26 K, Liquid): 1187.22 ± 0.37 kg/m3 | mass density (313.17 K, 100.02 kPa, Fluid (supercritical or subcritical phases)): 3.98495 ± 0.046 kg/m3 and 3.98345 ± 0.046 kg/m3 | mass density (313.17 K, 200.04 kPa, Fluid (supercritical or subcritical phases)): 8.11408 ± 0.048 kg/m3 | mass density (313.17 K, 600.21 kPa, Fluid (supercritical or subcritical phases)): 26.4214 ± 0.055 kg/m3 | mass density (313.17 K, 902.11 kPa, Fluid (supercritical or subcritical phases)): 42.8957 ± 0.062 kg/m3 | mass density (313.18 K, 400.01 kPa, Fluid (supercritical or subcritical phases)): 16.8674 ± 0.05 kg/m3 | mass density (313.18 K, 800.41 kPa, Fluid (supercritical or subcritical phases)): 37.0004 ± 0.059 kg/m3 | vapor or sublimation pressure (313.18 K, Liquid): 1018.1 ± 2.1 kPa | mass density (313.18 K, Liquid): 1146.44 ± 0.37 kg/m3 | mass density (323.19 K, 100.02 kPa, Fluid (supercritical or subcritical phases)): 3.85767 ± 0.045 kg/m3 and 3.85694 ± 0.045 kg/m3 | mass density (323.19 K, 500 kPa, Fluid (supercritical or subcritical phases)): 20.6111 ± 0.051 kg/m3 | mass density (323.19 K, 940.01 kPa, Fluid (supercritical or subcritical phases)): 42.4962 ± 0.064 kg/m3 | mass density (323.19 K, 1271.1 kPa, Fluid (supercritical or subcritical phases)): 62.9174 ± 0.068 kg/m3 | vapor or sublimation pressure (323.19 K, Liquid): 1319.8 ± 2.5 kPa | mass density (323.19 K, Liquid): 1102.35 ± 0.36 kg/m3 | mass density (323.2 K, 300 kPa, Fluid (supercritical or subcritical phases)): 11.9392 ± 0.047 kg/m3 | mass density (323.2 K, 802.37 kPa, Fluid (supercritical or subcritical phases)): 35.149 ± 0.054 kg/m3 | vapor or sublimation pressure (323.2 K, Liquid): 1319.9 ± 2.5 kPa | mass density (323.2 K, Liquid): 1102.34 ± 0.36 kg/m3 | mass density (333.16 K, 101.53 kPa, Fluid (supercritical or subcritical phases)): 3.7964 ± 0.044 kg/m3 | mass density (333.16 K, 303.79 kPa, Fluid (supercritical or subcritical phases)): 11.6786 ± 0.045 kg/m3 | mass density (333.16 K, 1500 kPa, Fluid (supercritical or subcritical phases)): 73.4336 ± 0.072 kg/m3 | vapor or sublimation pressure (333.16 K, Liquid): 1683 ± 3.1 kPa | mass density (333.16 K, Liquid): 1052.61 ± 0.37 kg/m3 | mass density (333.17 K, 101.53 kPa, Fluid (supercritical or subcritical phases)): 3.79264 ± 0.044 kg/m3 | mass density (333.17 K, 502.7 kPa, Fluid (supercritical or subcritical phases)): 19.9182 ± 0.049 kg/m3 | mass density (333.17 K, 801.13 kPa, Fluid (supercritical or subcritical phases)): 33.4094 ± 0.052 kg/m3 | mass density (333.17 K, 1009.4 kPa, Fluid (supercritical or subcritical phases)): 43.8443 ± 0.059 kg/m3 | mass density (333.17 K, 1300.4 kPa, Fluid (supercritical or subcritical phases)): 60.3214 ± 0.066 kg/m3 | vapor or sublimation pressure (333.17 K, Liquid): 1683.2 ± 3.1 kPa | mass density (333.17 K, Liquid): 1052.6 ± 0.37 kg/m3 | mass density (343.03 K, 136.28 kPa, Fluid (supercritical or subcritical phases)): 4.96602 ± 0.043 kg/m3 | mass density (343.03 K, 1500 kPa, Fluid (supercritical or subcritical phases)): 68.2379 ± 0.068 kg/m3 | mass density (343.03 K, 1704.5 kPa, Fluid (supercritical or subcritical phases)): 81.5238 ± 0.075 kg/m3 | vapor or sublimation pressure (343.03 K, Liquid): 2110.6 ± 3.8 kPa | mass density (343.03 K, Liquid): 997.103 ± 0.38 kg/m3 | mass density (343.04 K, 136.71 kPa, Fluid (supercritical or subcritical phases)): 4.97127 ± 0.043 kg/m3 | mass density (343.04 K, 303.78 kPa, Fluid (supercritical or subcritical phases)): 11.2865 ± 0.044 kg/m3 | mass density (343.04 K, 520.7 kPa, Fluid (supercritical or subcritical phases)): 19.9261 ± 0.047 kg/m3 | mass density (343.04 K, 849.11 kPa, Fluid (supercritical or subcritical phases)): 34.1538 ± 0.05 kg/m3 | mass density (343.04 K, 1093.8 kPa, Fluid (supercritical or subcritical phases)): 45.8644 ± 0.055 kg/m3 | mass density (343.04 K, 1300.4 kPa, Fluid (supercritical or subcritical phases)): 56.7069 ± 0.061 kg/m3 | mass density (343.04 K, 1900.2 kPa, Fluid (supercritical or subcritical phases)): 96.118 ± 0.087 kg/m3 | vapor or sublimation pressure (343.04 K, Liquid): 2110.9 ± 3.8 kPa | mass density (343.04 K, Liquid): 997.091 ± 0.38 kg/m3 | mass density (353.16 K, 136.72 kPa, Fluid (supercritical or subcritical phases)): 4.81465 ± 0.043 kg/m3 | mass density (353.16 K, 500.97 kPa, Fluid (supercritical or subcritical phases)): 18.447 ± 0.045 kg/m3 | mass density (353.16 K, 2000.3 kPa, Fluid (supercritical or subcritical phases)): 94.8889 ± 0.078 kg/m3 | mass density (353.16 K, 2200.5 kPa, Fluid (supercritical or subcritical phases)): 110.087 ± 0.093 kg/m3 | vapor or sublimation pressure (353.16 K, Liquid): 2633.6 ± 4.7 kPa and 2633.7 ± 4.7 kPa | mass density (353.16 K, Liquid): 928.313 ± 0.41 kg/m3 and 928.306 ± 0.41 kg/m3 | mass density (353.17 K, 1000.4 kPa, Fluid (supercritical or subcritical phases)): 39.3925 ± 0.052 kg/m3 | mass density (353.17 K, 1508.8 kPa, Fluid (supercritical or subcritical phases)): 64.532 ± 0.061 kg/m3 | mass density (353.17 K, 2408.1 kPa, Fluid (supercritical or subcritical phases)): 128.821 ± 0.11 kg/m3 | mass density (363.17 K, 153.67 kPa, Fluid (supercritical or subcritical phases)): 5.26494 ± 0.041 kg/m3 | mass density (363.17 K, 500.5 kPa, Fluid (supercritical or subcritical phases)): 17.8052 ± 0.044 kg/m3 | mass density (363.17 K, 1001.1 kPa, Fluid (supercritical or subcritical phases)): 37.7848 ± 0.048 kg/m3 | mass density (363.17 K, 3101.3 kPa, Fluid (supercritical or subcritical phases)): 188.758 ± 0.19 kg/m3 | vapor or sublimation pressure (363.17 K, Liquid): 3245.3 ± 5.6 kPa | mass density (363.17 K, Liquid): 837.765 ± 0.43 kg/m3 | mass density (363.18 K, 1500.8 kPa, Fluid (supercritical or subcritical phases)): 60.7126 ± 0.055 kg/m3 | mass density (363.18 K, 2003.2 kPa, Fluid (supercritical or subcritical phases)): 88.1709 ± 0.069 kg/m3 | mass density (363.18 K, 2500.4 kPa, Fluid (supercritical or subcritical phases)): 122.731 ± 0.095 kg/m3 | mass density (363.18 K, 2800.4 kPa, Fluid (supercritical or subcritical phases)): 150.158 ± 0.13 kg/m3 | mass density (363.18 K, 3002.1 kPa, Fluid (supercritical or subcritical phases)): 174.085 ± 0.16 kg/m3 | vapor or sublimation pressure (363.18 K, Liquid): 3245.5 ± 5.6 kPa | mass density (363.18 K, Liquid): 837.734 ± 0.43 kg/m3

— the NIST ThermoML archive (doi:10.1021/je0497496)
